The assay has as its system Bovine cardiac myofibrils. Nature of the assay: In vitro model of dose-dependent myofibril ATPase modulation (AC1.4, pyruvate kinase/lactate dehydrogenase-coupled ATPase assay at pCa25). The note with it: concentration at which ATPase activity was 1.4-fold higher than the bottom of the dose curve, mean of a minimum of two independent tests. It is filed as biochemical. The essentials:
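Bovine cardiac myofibrils, detergent-treated; 0.25-1.0 mg/ml. Buffer: K-PIPES 12 mM, MgCl2 2 mM, DTT 1 mM, BSA 0.1 mg/ml, pH 6.80, 22° C; Ca2+ set by EGTA/CaCl2. ATP 1 mM, NADH/PEP-coupled, A340. 4-parameter fit; n≥2.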

The molecule `O=C(NCc1ccc(C(F)(F)F)cc1)[C@H]1CCCN1C(=O)[C@H]1CCCN(S(=O)(=O)N2CC3(C2)CC(O)(C(F)(F)F)C3)C1` [Example 743, 1-(((3S)-1-((6-hydroxy-6-(trifluoromethyl)-2-azaspiro[3.3]hept-2-yl)sulfonyl)-3-piperidinyl)carbonyl)-N-(4-(trifluoromethyl)benzyl)-D-prolinamide] had an AC1.4 of 7.2015 µM.

Regarding `CN(C)S(=O)(=O)N1CCC[C@H](C(=O)N2CCC[C@@H]2C(=O)NCc2ccc(C(F)(F)F)cc2)C1` [Example 744, 1-(((3S)-1-(dimethylsulfamoyl)-3-piperidinyl)carbonyl)-N-(4-(trifluoromethyl)benzyl)-D-prolinamide], the AC1.4 was determined as 7.232 µM.

Molecule `O=C(N[C@@H](c1ccc(C(F)(F)F)cc1F)C1CC1)[C@H]1CCCN1C(=O)c1cccc(-c2cc[nH]n2)c1` [Example 745, N-((R)-cyclopropyl(2-fluoro-4-(trifluoromethyl)phenyl)methyl)-1-(3-(1H-pyrazol-3-yl)benzoyl)-D-prolinamide] came in with an AC1.4 of 7.244 µM.

In turn, `N#CC1CN(S(=O)(=O)N2CCC[C@H](C(=O)N3CCC[C@@H]3C(=O)NCc3ccccc3C(F)(F)F)C2)C1` [Example 746, 1-(((3S)-1-((3-cyano-1-azetidinyl)sulfonyl)-3-piperidinyl)carbonyl)-N-(2-(trifluoromethyl)benzyl)-D-prolinamide] displayed an AC1.4 of 7.268 µM.

The molecule `COc1cc(F)c([C@H](NC(=O)[C@H]2C[C@H]3C[C@H]3N2C(=O)c2cccc(S(C)(=O)=O)c2)C2CC2)cc1F` [Example 747, (1R,3R,5R)-N-((R)-cyclopropyl(2,5-difluoro-4-methoxyphenyl)methyl)-2-(3-(methylsulfonyl)benzoyl)-2-azabicyclo[3.1.0]hexane-3-carboxamide] returned an AC1.4 of 7.287 µM.

In turn, `CC(C)c1cc(C(=O)N2[C@@H](C(=O)N[C@@H](c3ccc(C(F)(F)F)cc3F)C3COC3)C[C@H]3C[C@H]32)ccn1` [Example 748, (1R,3R,5R)-N-((R)-(2-fluoro-4-(trifluoromethyl)phenyl)(3-oxetanyl)methyl)-2-((2-(2-propanyl)-4-pyridinyl)carbonyl)-2-azabicyclo[3.1.0]hexane-3-carboxamide] had an AC1.4 of 7.314 µM.

With `C#CCN(C)S(=O)(=O)c1cccc(C(=O)N2CCC[C@@H]2C(=O)N[C@H](C)c2ccc(C(F)(F)F)cc2)c1` [Example 749, 1-(3-(methyl(2-propyn-1-yl)sulfamoyl)benzoyl)-N-((1R)-1-(4-(trifluoromethyl)phenyl)ethyl)-D-prolinamide], the AC1.4 was 7.3175 µM.

`CS(=O)(=O)c1cccc(C(=O)N2CC[C@@H]3C[C@]32C(=O)N[C@@H](c2ccc(C(F)(F)F)cc2F)C2CC2)c1` [Example 751, (1R,5R)-N-((R)-cyclopropyl(2-fluoro-4-(trifluoromethyl)phenyl)methyl)-2-(3-(methylsulfonyl)benzoyl)-2-azabicyclo[3.1.0]hexane-1-carboxamide]: the AC1.4 was found to be 7.3925 µM.

With `CS(=N)(=O)c1cccc(C(=O)N2[C@@H](C(=O)N[C@@H](c3cc(F)c(Cl)cc3F)C3CC3)C[C@H]3C[C@H]32)c1` (stereo partly drawn) [Example 752, (1R,3R,5R)—N—((R)-(4-chloro-2,5-difluorophenyl)(cyclopropyl)methyl)-2-(3-(S-methylsulfonimidoyl)benzoyl)-2-azabicyclo[3.1.0]hexane-3-carboxamide], the AC1.4 came to 7.417 µM.

As to `CS(=O)(=O)c1cccc(C(=O)N2[C@@H](C(=O)N[C@@H]3CCc4cc(Cl)ccc43)C[C@H]3C[C@H]32)c1` [Example 753, (1R,3R,5R)-N-((1R)-5-chloro-2,3-dihydro-1H-inden-1-yl)-2-(3-(methylsulfonyl)benzoyl)-2-azabicyclo[3.1.0]hexane-3-carboxamide], the AC1.4 is 7.42 µM.

With `O=C(NC1CN(S(=O)(=O)N2CCC[C@H](C(=O)N3CCC[C@@H]3C(=O)NCc3ccc(C(F)(F)F)cc3)C2)C1)C1CCC1` [Example 754, 1-(((3S)-1-((3-((cyclobutylcarbonyl)amino)-1-azetidinyl)sulfonyl)-3-piperidinyl)carbonyl)-N-(4-(trifluoromethyl)benzyl)-D-prolinamide], the AC1.4 came to 7.453 µM.

As to `Nc1ccccc1C(=O)N1[C@@H](C(=O)N[C@@H](c2ccc(C(F)(F)F)cc2F)C2CC2)C[C@H]2C[C@H]21` [Example 755, (1R,3R,5R)-2-(2-aminobenzoyl)-N-((R)-cyclopropyl(2-fluoro-4-(trifluoromethyl)phenyl)methyl)-2-azabicyclo[3.1.0]hexane-3-carboxamide], the AC1.4 came to 7.5435 µM.

Consider `CS(=O)(=O)c1cccc(C(=O)N2CC[C@@H](F)[C@@H]2C(=O)N[C@@H](c2ccc(C(F)(F)F)cc2)C2CC2)c1` [Example 756, (3R)-N-((R)-cyclopropyl(4-(trifluoromethyl)phenyl)methyl)-3-fluoro-1-(3-(methylsulfonyl)benzoyl)-D-prolinamide], for which the AC1.4 worked out at 7.5875 µM.

`CC(O)C(NC(=O)[C@H]1C[C@H]2C[C@H]2N1C(=O)c1cccc(S(C)(=O)=O)c1)c1cc(F)c(Cl)cc1F` (stereo partly drawn) [Example 757, (1R,3R,5R)-N-(1-(4-chloro-2,5-difluorophenyl)-2-hydroxypropyl)-2-(3-(methylsulfonyl)benzoyl)-2-azabicyclo[3.1.0]hexane-3-carboxamide] gave an AC1.4 of 7.6005 µM.

As to `N#CC1CN(S(=O)(=O)N2CCC[C@H](C(=O)N3CCC[C@@H]3C(=O)NCc3ccccc3)C2)C1` [Example 758, (R)—N-benzyl-1-((S)-1-((3-cyanoazetidin-1-yl)sulfonyl)piperidine-3-carbonyl)pyrrolidine-2-carboxamide], the AC1.4 amounted to 7.61 µM.

As to `N#CC1CN(S(=O)(=O)c2cccc(C(=O)N3CCC[C@@H]3C(=O)NC3CC(C(F)(F)F)C3)c2)C1` (stereo partly drawn) [Example 759, 1-((3-((3-cyano-1-azetidinyl)sulfonyl)phenyl)carbonyl)-N-(cis-3-(trifluoromethyl)cyclobutyl)-D-prolinamide,1-((3-((3-cyano-1-azetidinyl)sulfonyl)phenyl)carbonyl)-N-(trans-3-(trifluoromethyl)cyclobutyl)-D-prolinamide], the AC1.4 stood at 7.6347 µM.

`O=C(NCc1ccc(C(F)(F)F)cc1)[C@H]1CCCN1C(=O)[C@H]1CCCN(S(=O)(=O)N2CC(F)(C(F)(F)F)C2)C1` [Example 760, 1-(((3S)-1-((3-fluoro-3-(trifluoromethyl)-1-azetidinyl)sulfonyl)-3-piperidinyl)carbonyl)-N-(4-(trifluoromethyl)benzyl)-D-prolinamide] displayed an AC1.4 of 7.661 µM.

The molecule `CS(=O)(=O)c1cc(C(=O)N2CCC[C@@H]2C(=O)NC(c2ccc(C(F)(F)F)cc2F)C2CC2)ccn1` (stereo partly drawn) [Example 761, (2R)-N-(cyclopropyl(2-fluoro-4-(trifluoromethyl)phenyl)methyl)-1-(2-(methylsulfonyl)isonicotinoyl)pyrrolidine-2-carboxamide] showed an AC1.4 of 7.696 µM.

Molecule `CC(NC(=O)[C@H]1CCCN1C(=O)[C@H]1CCCN(S(=O)(=O)N2CC(C#N)C2)C1)c1cccc(F)c1F` (stereo partly drawn) [Example 763, (2R)-1-((S)-1-((3-cyanoazetidin-1-yl)sulfonyl)piperidine-3-carbonyl)-N-(1-(2,3-difluorophenyl)ethyl)pyrrolidine-2-carboxamide] had an AC1.4 of 7.879 µM.

`COC(=O)CNS(=O)(=O)c1cccc(C(=O)N2CCC[C@@H]2C(=O)NCc2ccc(C(F)(F)F)cc2)c1` [Example 764, methyl N-((3-(((2R)-2-((4-(trifluoromethyl)benzyl)carbamoyl)-1-pyrrolidinyl)carbonyl)phenyl)sulfonyl)glycinate]: the AC1.4 is 7.912 µM.

On to `Cc1ccc(C)c(CNC(=O)[C@H]2CCCN2C(=O)[C@H]2CCCN(S(=O)(=O)N3CC(C#N)C3)C2)c1` [Example 765, 1-(((3S)-1-((3-cyano-1-azetidinyl)sulfonyl)-3-piperidinyl)carbonyl)-N-(2,5-dimethylbenzyl)-D-prolinamide], for which the AC1.4 stood at 7.9325 µM.

Regarding `O=C(NCc1ccc(C(F)(F)F)cc1)[C@H]1CCCN1C(=O)[C@H]1CCCN(S(=O)(=O)C2CCOC2)C1` (stereo partly drawn) [Example 766, (2R)-1-((3S)-1-((tetrahydrofuran-3-yl)sulfonyl)piperidine-3-carbonyl)-N-(4-(trifluoromethyl)benzyl)pyrrolidine-2-carboxamide], the AC1.4 came out at 7.933 µM.

In turn, `CS(=O)(=O)c1cncc(C(=O)N2CC(F)(F)C2C(=O)N[C@@H](c2cc(F)c(C(F)(F)F)cc2F)C2CC2)c1` (stereo partly drawn) [Example 767, N-((R)-cyclopropyl(2,5-difluoro-4-(trifluoromethyl)phenyl)methyl)-3,3-difluoro-1-(5-(methylsulfonyl)nicotinoyl)azetidine-2-carboxamide] registered an AC1.4 of 8.015 µM.

Regarding `N#CC1CN(S(=O)(=O)N2CCC[C@H](C(=O)N3CCC[C@@H]3C(=O)N[C@H](c3ccc(C(F)(F)F)cc3)C(F)(F)F)C2)C1` [Example 768, 1-(((3S)-1-((3-cyano-1-azetidinyl)sulfonyl)-3-piperidinyl)carbonyl)-N-((1R)-2,2,2-trifluoro-1-(4-(trifluoromethyl)phenyl)ethyl)-D-prolinamide], the AC1.4 amounted to 8.033 µM.

Regarding `CC1CCN1S(=O)(=O)N1CCC[C@H](C(=O)N2CCC[C@@H]2C(=O)NCc2ccc(C(F)(F)F)cc2)C1` (stereo partly drawn) [Example 769, (2R)-1-((3S)-1-((2-methylazetidin-1-yl)sulfonyl)piperidine-3-carbonyl)-N-(4-(trifluoromethyl)benzyl)pyrrolidine-2-carboxamide], the AC1.4 stood at 8.078 µM.

For `COc1ccc(Cl)cc1CNC(=O)[C@H]1CCCN1C(=O)[C@H]1CCCN(S(=O)(=O)N2CC(C#N)C2)C1` [Example 770, N-(5-chloro-2-methoxybenzyl)-1-(((3S)-1-((3-cyano-1-azetidinyl)sulfonyl)-3-piperidinyl)carbonyl)-D-prolinamide], the AC1.4 was found to be 8.1255 µM.

Values taken from patent US11780826B2 (Amgen Inc., priority 2017, dated 2023).
